Laboratory results taken from US5567704A, “R-enatiomerically pure hydroxylated xanthine compounds to treat baldness” (priority 1995, dated 1996).

Key:
IL-6 = assay: mouse plasma IL-6 ELISA after endotoxin; type: in vivo; settings: for Plasma IL-6: LPS + CT-1501R
Method: For ELISA measurements of cytokine levels in plasma, blood was collected by retro-orbital or cardiac puncture of anesthetized mice, immediately centrifuged and the EDTA plasma stored at -70° C. Particulate free plasma was thawed on ice and cytokine levels determined utilizing commercial ELISA assays with normal mouse plasma used to generate standard curves. Murine tumor necrosis factor-α and interleukin-1αkits were purchased from Genzyme (Cambridge, Mass.) and Endogen (Boston, Mass.), respectively. Each data point was an average of two ELISA measurements made from EDTA […] pooled from three mice. The data summarized in Table 3 were compiled from two independent experiments; data from Table 4 and 5 were from single experiments of three mice per data point.
In particular, peak levels observed at 6, 12 and 18 hours post endotoxin were decreased 1.2, 4.3 and 3.2-fold, respectively. Finally, IL-6 measurements were made in a similar manner (Table 6, FIG. 8).

thymocytes = assay: thymocyte costimulator assay (ConA and IL-1α or IL-2); type: cell-based, mice; settings: drug added two hours prior, FIG. 3
Method: A thymocyte costimulator assay is conducted to evaluate the inventive compounds to inhibit activation and proliferation of thymocytes caused by stimulation with Con A and interleukin-1 (IL-1), or […]. Thymuses are obtained from mice (e.g., female Balb/C mice) and the thymuses are removed and dissociated into culture media (e.g., RPMI 1640 without serum supplementation). The dissociated thymus tissue and cell suspension is transferred to centrifuge tubes and allowed to settle, washed with HBSS and resuspended in serum-supplemented culture media (e.g., RPMI 1640 with 10% fetal calf serum). Any contaminating red cells are lysed, and viable cells are resuspended and counted. Thymocytes are plated (e.g., 96-well plates at a density of 2×10^5 cells/well) and a stimulating agent, such as Con A, IL-1 (e.g., IL-1α) or IL-2 is added to the well. The cells are incubated for 4 days at 37° C. On the fourth day, the cells are pulsed with tritiated thymidine and cell proliferation determined. Inventive compounds are added at the time of stimulating agent addition.
CT1501R was added to the cells at the doses indicated two hours prior to activation with ConA and IL-1α or IL-2. Background counts were less than 200 cpm.

[1] = system: lysophosphatidic acid acyl transferase (LPAAT); assay: in vitro inhibition of LPAAT in 3T3 Ras-transformed fibroblasts stimulated with IL-1β; type: cell-based
Method: FIG. 17 illustrates a comparison of CT1501R, its S isomer CT1501S, and PTX on in vitro inhibition of lysophosphatidic acid acyl transferase (LPAAT), an enzyme involved in second messenger signaling. […] LPAAT activity was determined in 3T3 Ras-transformed fibroblasts stimulated with IL-1β.
One in vitro assay measures inhibition of the relevant enzymes lysophosphatidic acid acyltransferase (LPAAT) and phosphatidic acid phosphoryl hydrolase (PAPH). The assay involves incubating of target cells with a primary stimulus (e.g., a variety of cytokines, growth factors, oncogene products, putative therapeutic agents, irradiation, viral infection, toxins, bacterial infection and the products thereof, and any stimulus which, if not counteracted, has a deleterious effect on the target cell) in the presence or absence of an inventive compound at varying dosage levels. Target cells include, for example, subcellular entities, such as, microsomes derived from mesenchymal and/or ectodermal cells, particularly microsomes from marrow stromal cells or human or rat mesangial cells; microsomes or synaptosomes derived from brain; plasma membrane-enriched microsomes, plasma membranes derived as described in Bursten et at. (J. Biol. Chem. 226:20732-20743, 1991 ), or detergent-solubilized microsomes; synaptosomes, and membranes or other cell preparations solubilized using, for example, NP-40, Miranal, SDS or other neutral detergents; and detergent-solubilized, recombinant, or further purified preparations of cell proteins, including the proteins LPAAT and/or PAPH. After incubation for short periods of time, cell lipids are extracted and assayed by […] according to standard procedures. Briefly, lipids are extracted using, for example, chloroform:methanol 2:1 (v/v), and the extracts are then subjected to HPLC as described in Bursten and Harris, Biochemistry 30:6195-6203, 1991. A Rainin® mu-Porasil column is used with a 3:4 hexane:propanol organic carrier and a 1-10% water gradient during the first 10 minutes of separation. Detection of the peaks in the elution pattern is by absorption in the range of ultraviolet which detects isolated double bonds. The relevant peaks of unsaturated PA and DAG are shown in the elution pattern. It is important to note that the assay method permits discrimination between various forms of PA and DAG so that those relevant to the pathway affected by the (R) or (S) compounds of the invention can be measured directly. Confirmation of the nature of the acyl substituents of these components is accomplished using fast-atom bombardment mass spectroscopy. Thus, the relevant unsaturated (non-arachidonic) PA and DAG subspecies may be detected. The time periods employed are 5-60 seconds after stimulation with the primary stimulus, such as a cytokine. This technique permits assessment of the levels of various lipid components as a function of time.

[2] = system: TNF-α release from LPS stimulated PEC cells; assay: TNF-α release from LPS stimulated PEC macrophages (ELISA); type: cell-based, murine; settings: Mus musculus, Macrophage
Method: Murine peritoneal exudate cell macrophages (PEC) were isolated by perfusion of mouse peritoneum and plated into 96-well trays at 5×10^5 cells per well. […] At various times thereafter, supernatants were removed and levels of either TNF-α or IL-1α were assayed using commercial 96-well microtiter immunoassay kits (Genzyme; TNF; Endogen, Boston, Mass.; IL-1α) according to manufacturer's specifications. […] 4000 cells were plated into each well of a 96-well microtiter plate and allowed to incubate for 72 hrs at 37° C. […] Either the HUVEC or U937 cells were stimulated with either LPS, IL-1α or TNF-α for 12 hrs. For the adhesion assay, U937 cells were labeled with the fluorescent viability stain, 2',7'-bis-(2-carboxyethyl)-5-(and-6)-carboxyfluorescein acetoxymethyl ester (BCECF). […] The cells were washed once with full media and 50,000 cells/well added to the HUVEC cultures. The samples were incubated at 37° C. for 30 min, inverted and centrifuged for 10 min at 400× g. After addition of […] Hanks Balanced Salt Solution (HBSS), the microtiter plate was then analyzed on a Millipore Cytofluor fluorescent plate reader (excitation 488 nm; emission 525 nm).
Cells were pretreated with […] CT1501R and supernatants assayed by ELISA for released TNF-α as a function of time following LPS stimulation. […]

With C[C@@H](O)CCCCn1c(=O)c2c(ncn2C)n(C)c1=O [CT1501R, (R)-1-(5-hydroxyhexyl)-3,7-dimethylxanthine] the “fold decrease of plasma IL-6” value (IL-6; 3 hours post endotoxin) was 1.7 fold, the “fold decrease of plasma IL-6” value (IL-6; 6 hours post endotoxin) was 2.0 fold and the “fold decrease of plasma IL-6” value (IL-6; 12 hours post endotoxin) was 4.1 fold. For the same compound, the “Plasma IL-6” value (IL-6; 0 hours post LPS) was 0 ng/mL, the “Plasma IL-6” value (IL-6; 0.17 hours post LPS) was 0.14 ng/mL and the “Plasma IL-6” value (IL-6; 0.5 hours post LPS) was 1 ng/mL. The “Plasma IL-6” value (IL-6; 1 hour post LPS) was 31.8 ng/mL, the “Plasma IL-6” value (IL-6; 3 hours post LPS) was 183 ng/mL and the “Plasma IL-6” value (IL-6; 6 hours post LPS) was 121 ng/mL. For the same compound, the “Plasma IL-6” value (IL-6; 12 hours post LPS) was 29.6 ng/mL, the “Plasma IL-6” value (IL-6; 18 hours post LPS) was 19.8 ng/mL and the “Plasma IL-6” value (IL-6; 24 hours post LPS) was 25.6 ng/mL. For the same compound, the “Plasma IL-6” value (IL-6; 36 hours post LPS) was 1.64 ng/mL, the “Plasma IL-6” value (IL-6; 48 hours post LPS) was 0.4 ng/mL and the “inhibition of thymocyte proliferation” value (thymocytes) was “inhibited thymocyte proliferation in a dose-response manner”. The “potency relative to the S enantiomer” value [1] was “many times more potent than the corresponding S enantiomer”, the “potency relative to the racemic mixture (M1)” value [1] was “two to three time more potent than the racemic mixture” and the “inhibition of LPAAT enzyme activity” value ([1]; 3T3 Ras-transformed fibroblasts, IL-1β, FIG. 17) was “significantly inhibited enzyme activity”. For the same compound, the IC50 ([2]; LPS stimulated PEC, drug 1 hour before LPS, FIG. 18, read-out: concentration for 50% inhibition of TNF-α release (IC50)) was roughly 30 µM and the inhibition at 500 µM ([2]; at 500 μM, read-out: inhibitory effects, % of the maximal LPS stimulation (1428 pg/ml)) was roughly 40%.
